Key:
[1] = biological target: T1, Wee-1 kinase (Homo sapiens, UniProt P30291); test: Inhibitory activity against Wee-1 kinase (Lanthra Screen Wee-1 kinase kit, Tracer 178); assay type: binding; conditions: Wee-1 kinase 5 nM, Tracer 178 50 nM, 1 h room temperature
T1 construct: purchased Invitrogen
Summary of the method: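 Compound gradient in DMSO mixed with 5 nM Wee-1, 2 nM Eu-anti-GST antibody and 50 nM Tracer 178 (all final). Read after one hour at room temperature; IC50 calculated against the DMSO solvent control.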

[2] = system: HT29 cells; test: Antiproliferative activity against HT29 cells (Cell Titer-Lumi, ATP content); assay type: cell-based; conditions: Homo sapiens, HT-29, 72 after compound addition, read-out: HT-29 cells Anti-proliferative activity (IC50 for the inhibition against HT-29 cell growth)
Summary of the method: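 Growth inhibition IC50 derived from luminescent ATP content after 72 (units as printed) of compound exposure over a dilution gradient. Seeding density 3000 cells per well; compound added once cells had adhered overnight.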

T1 sequence (P30291 whole entry): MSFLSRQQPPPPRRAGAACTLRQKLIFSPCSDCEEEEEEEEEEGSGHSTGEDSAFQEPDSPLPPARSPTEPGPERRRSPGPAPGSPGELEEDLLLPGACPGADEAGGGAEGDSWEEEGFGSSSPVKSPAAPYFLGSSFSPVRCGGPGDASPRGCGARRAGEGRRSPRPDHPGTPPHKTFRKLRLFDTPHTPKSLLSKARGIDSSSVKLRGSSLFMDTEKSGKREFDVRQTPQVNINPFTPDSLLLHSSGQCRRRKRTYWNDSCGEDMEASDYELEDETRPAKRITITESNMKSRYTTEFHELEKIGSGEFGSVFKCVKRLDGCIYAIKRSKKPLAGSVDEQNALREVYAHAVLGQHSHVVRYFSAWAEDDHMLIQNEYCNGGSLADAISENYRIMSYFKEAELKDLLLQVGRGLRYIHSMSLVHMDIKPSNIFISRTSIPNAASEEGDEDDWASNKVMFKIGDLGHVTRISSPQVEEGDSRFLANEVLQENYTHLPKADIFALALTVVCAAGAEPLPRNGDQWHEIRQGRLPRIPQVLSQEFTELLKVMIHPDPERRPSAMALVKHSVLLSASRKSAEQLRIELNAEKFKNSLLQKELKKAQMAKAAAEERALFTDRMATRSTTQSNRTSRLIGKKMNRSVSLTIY

| Compound | IC50 [1] [µM] | IC50 [2] [µM] |
| --- | --- | --- |
| C=CCn1c(=O)c2cnc(Nc3cc(F)c(N4CCN(C)CC4)c(Cl)c3)nc2n1-c1ccc(=O)n(C(C)C)n1 [Compound 60] | ≤ 0.03 | ≤ 1 |
| C=CCn1c(=O)c2cnc(Nc3ccc(N4CCC(C)(N)CC4)c(C)c3)nc2n1-c1ccc(=O)n(C(C)C)n1 [Compound 108] | ≤ 0.03 | ≤ 1 |
| C=CCn1c(=O)c2cnc(Nc3ccc4c(c3)CN(C(C)C)CC43CC3)nc2n1-c1ccc(=O)n(C(C)C)n1 [Compound 233] | ≤ 0.03 | ≤ 1 |
| C=CCn1c(=O)c2cnc(Nc3ccc4c(c3)CNCC4(F)F)nc2n1-c1ccc(=O)n(C(C)C)n1 [Compound 240] | ≤ 0.03 | ≤ 1 |
| C=CCn1c(=O)c2cnc(Nc3ccc(N4CC5(CCN(C)C5)C4)c(C)c3)nc2n1-c1ccc(=O)n(C(C)C)n1 [Compound 164] | ≤ 0.03 | ≤ 1 |
| C=CCn1c(=O)c2cnc(Nc3ccc(N4CCNCC4)c(CC(F)(F)F)c3)nc2n1-c1ccc(=O)n(C(C)C)n1 [Compound 53] | ≤ 0.03 | ≤ 1 |
| C=CCn1c(=O)c2cnc(Nc3ccc(N4CCC(C)(NC)CC4)cc3)nc2n1-c1ccc(=O)n(C(C)C)n1 [Compound 110] | ≤ 0.03 | ≤ 1 |
| C=CCn1c(=O)c2cnc(Nc3ccc(N4CC(N5CCCC5)C4)cc3)nc2n1-c1ccc(=O)n(C(C)C)n1 [Compound 83] | ≤ 0.03 | ≤ 1 |
| C=CCn1c(=O)c2cnc(Nc3ccc(N4CCN(C)CC4)c(C)c3)nc2n1-c1ccc(=O)n(C(C)(C)C)c1 [Compound 327] | ≤ 0.03 | ≤ 1 |
| C=CCn1c(=O)c2cnc(Nc3ccc(N4CCN(C)CC4)cc3)nc2n1-c1ccc(=O)n(CC(F)F)n1 [Compound 7] | 0.03 to 0.1 | 1 to 3 |
| C=CCn1c(=O)c2cnc(Nc3ccc(N4CCN(C)CC4)cc3)nc2n1-c1ccc(=O)n(CC(F)(F)F)n1 [Compound 8] | 0.03 to 0.1 | 1 to 3 |
| C=CCn1c(=O)c2cnc(Nc3ccc(C4CCNCC4)c(CC(F)(F)F)c3)nc2n1-c1ccc(=O)n(C(C)C)n1 [Compound 198] | ≤ 0.03 | ≤ 1 |
| C=CCn1c(=O)c2cnc(Nc3ccc4c(c3)C3(CC3)CN(C)C4)nc2n1-c1ccc(=O)n(C(C)C)n1 [Compound 235] | ≤ 0.03 | ≤ 1 |
| C=CCn1c(=O)c2cnc(Nc3ccc4c(c3)CN(C(C)C)CC4(F)F)nc2n1-c1ccc(=O)n(C(C)C)n1 [Compound 242] | ≤ 0.03 | ≤ 1 |
| CC(C)n1cc(-n2c3nc(Nc4ccc(N5CCN(C)CC5)cc4)ncc3c(=O)n2C2CC2)ccc1=O [Compound 307] | ≤ 0.03 | ≤ 1 |
| CCn1c(=O)c2cnc(Nc3ccc(N4CCN(C)CC4)cc3)nc2n1-c1ccc(=O)n(C(C)(C)C)n1 [Compound 284] | ≤ 0.03 | ≤ 1 |
| C=CCn1c(=O)c2cnc(Nc3cc(F)cc(N4CCNCC4)c3)nc2n1-c1ccc(=O)n(C(C)C)n1 [Compound 71] | ≤ 0.03 | ≤ 1 |
| CC(C)n1cc(-n2c3nc(Nc4ccc5c(c4)CN(C)CC54CC4)ncc3c(=O)n2C2CC2)ccc1=O [Compound 310] | ≤ 0.03 | ≤ 1 |
| C=CCn1c(=O)c2cnc(Nc3ccc(N4CCC5(CC4)CN(C)C5)cc3)nc2n1-c1ccc(=O)n(C(C)C)n1 [Compound 178] | ≤ 0.03 | ≤ 1 |
| C=CCn1c(=O)c2cnc(Nc3cc(N4CCN(C)CC4)c4cc[nH]c4c3)nc2n1-c1ccc(=O)n(C(C)C)n1 [Compound 252] | ≤ 0.03 | ≤ 1 |
| C=CCn1c(=O)c2cnc(Nc3ccc(N4CCN(C)CC4)cc3)nc2n1-c1cn(C(C)C)c(=O)cc1OC [Compound 30] | 0.03 to 0.1 | > 3 |

| Compound | IC50 [1] [µM] | IC50 [2] [µM] |
| --- | --- | --- |
| C=CCn1c(=O)c2cnc(Nc3ccc(C4CCN(C)CC4)c(C(F)(F)F)c3)nc2n1-c1ccc(=O)n(C(C)C)n1 [Compound 197] | ≤ 0.03 | ≤ 1 |
| C=CCn1c(=O)c2cnc(Nc3cc(C)cc(N4CCN(C)CC4)c3)nc2n1-c1ccc(=O)n(C(C)C)n1 [Compound 70] | ≤ 0.03 | ≤ 1 |
| C=CCn1c(=O)c2cnc(Nc3cc(C)c(N4CCNCC4)c(Cl)c3)nc2n1-c1ccc(=O)n(C(C)C)n1 [Compound 57] | ≤ 0.03 | ≤ 1 |
| Cc1cc(Nc2ncc3c(=O)n(C(C)C)n(-c4ccc(=O)n(C(C)C)c4)c3n2)ccc1C1CCN(C)CC1 [Compound 305] | ≤ 0.03 | ≤ 1 |
| C=CCn1c(=O)c2cnc(Nc3ccc(N4CCN(C)CC4)cc3)nc2n1-c1ccc(=O)n(C2COC2)n1 [Compound 14] | 0.03 to 0.1 | > 3 |
| C=CCn1c(=O)c2cnc(Nc3ccc(N4CCN(C)CC4)cc3)nc2n1-c1ccc(=O)n(C(C)CC)n1 (stereo not drawn) [Compound 5] | ≤ 0.03 | ≤ 1 |
| C=CCn1c(=O)c2cnc(Nc3cc(Cl)cc(N4CCN(C)CC4)c3)nc2n1-c1ccc(=O)n(C(C)C)n1 [Compound 74] | ≤ 0.03 | ≤ 1 |
| C=CCn1c(=O)c2cnc(Nc3ccc(N4CC[C@H](N(C)C)C4)cc3)nc2n1-c1ccc(=O)n(C(C)C)n1 [Compound 92] | ≤ 0.03 | ≤ 1 |
| C=CCn1c(=O)c2cnc(Nc3cc(Cl)cc(C4CCNCC4)c3)nc2n1-c1ccc(=O)n(C(C)C)n1 [Compound 210] | ≤ 0.03 | ≤ 1 |
| C=CCn1c(=O)c2cnc(Nc3ccc4c(c3)CN(C)CC43CC3)nc2n1-c1ccc(=O)n(C(C)C)n1 [Compound 232] | ≤ 0.03 | ≤ 1 |
| C=CCn1c(=O)c2cnc(Nc3ccc(N4CCN[C@H](C)C4)c(C)c3)nc2n1-c1ccc(=O)n(C(C)C)n1 [Compound 133] | ≤ 0.03 | ≤ 1 |
| C=CCn1c(=O)c2cnc(Nc3ccc(N4CCC5(CNC5)C4)c(C)c3)nc2n1-c1ccc(=O)n(C(C)C)n1 [Compound 170] | ≤ 0.03 | ≤ 1 |
| C=CCn1c(=O)c2cnc(Nc3ccc(N4CCN(CCF)CC4)cc3)nc2n1-c1ccc(=O)n(C(C)C)n1 [Compound 37] | ≤ 0.03 | ≤ 1 |
| C=CCn1c(=O)c2cnc(Nc3cc(OC)cc(N4CCNCC4)c3)nc2n1-c1ccc(=O)n(C(C)C)n1 [Compound 76] | ≤ 0.03 | ≤ 1 |
| C=CCn1c(=O)c2cnc(Nc3ccc(N4CCC5(CNC5)C4)cc3)nc2n1-c1ccc(=O)n(C(C)C)n1 [Compound 169] | ≤ 0.03 | 1 to 3 |
| CC(C)n1nc(-n2c3nc(Nc4ccc5c(c4)CN(C)CC54CC4)ncc3c(=O)n2C2CC2)ccc1=O [Compound 274] | ≤ 0.03 | ≤ 1 |
| C=CCn1c(=O)c2cnc(Nc3ccc(N4C[C@@H](C)N[C@@H](C)C4)cc3)nc2n1-c1ccc(=O)n(C(C)C)n1 [Compound 116] | ≤ 0.03 | ≤ 1 |
| C=CCn1c(=O)c2cnc(Nc3ccc(N4CCC(N5CCC(F)(F)CC5)CC4)c(C)c3)nc2n1-c1ccc(=O)n(C(C)C)n1 [Compound 152] | ≤ 0.03 | ≤ 1 |
| C=CCn1c(=O)c2cnc(Nc3ccc(C4CCN(C)CC4)cc3)nc2n1-c1ccc(=O)n(C(C)C)n1 [Compound 191] | ≤ 0.03 | ≤ 1 |
| C=CCn1c(=O)c2cnc(Nc3ccc(C4CCNCC4)c(OC)c3)nc2n1-c1ccc(=O)n(C(C)C)n1 [Compound 194] | ≤ 0.03 | ≤ 1 |
| C=CCn1c(=O)c2cnc(Nc3ccc(N4CCN(C)CC4)cc3)nc2n1-c1cc(OC)c(=O)n(C(C)C)n1 [Compound 23] | ≤ 0.03 | > 3 |

— patent US12522607B2, “Substituted pyrazolo[3,4-d]pyrimidines as wee-1 inhibitors” (WIGEN BIOMEDICINE TECHNOLOGY (SHANGHAI) CO., LTD., priority 2020, dated 2026)
